In brackets after ≈: the same amount, converted by molar mass. Entries after “also recorded” stand apart in the source; their conditions may differ.
Key:
[1] = target: T1, lectin PA-IL (Pseudomonas aeruginosa, UniProt Q05097); experiment: Isothermal titration microcalorimetry (ITC); type: binding; conditions: for ΔH / Ka / −T ΔS / ΔG / n (stoichiometry): ITC, 25 °C; for Ka: association constant; for −T ΔS: calculated from ΔG = ΔH − TΔS; for ΔG: calculated from −RT ln Ka; for n (stoichiometry): single site-binding model
T1 construct: made in house; host or cells: Escherichia coli BL21(DE3)
T1 sequence (Q05097 2-122): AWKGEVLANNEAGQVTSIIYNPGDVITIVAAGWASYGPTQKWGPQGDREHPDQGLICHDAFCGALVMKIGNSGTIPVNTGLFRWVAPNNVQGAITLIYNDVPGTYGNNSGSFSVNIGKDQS
Protocol: All the experiments were performed on MicroCal iTC200 (Malvern Instruments, Malvern, UK) at 25 °C. The freeze-dried lectin PA-IL was dissolved in 0.1 M Tris/HCl, 500 μM CaCl2, pH = 7.5, and equilibrated at room temperature for 1 h before ITC measurements. Multivalent galactosylated compounds 4, 7, 10 and 13 were diluted in the same buffer and used in 0.25–0.5 mM concentrations. Aliquots of 2 µL of the compounds were added automatically to the 0.078 mM or 0.088 mM PA-IL in the calorimeter cell. Blank experiments (injections of compounds to the buffer) were performed and heat responses were subtracted. Integrated heat effects were analyzed by global fitting of data obtained from three independent titrations for each tested compound by non-linear regression using a single site-binding model (Microcal Origin 7, Malvern Instruments, Malvern, UK). Fitted data yielded the association constant (Ka) and the enthalpy of binding (ΔH). Other thermodynamic parameters, i.e., changes in free energy (ΔG) and entropy (ΔS), were calculated from the following equation: ΔG = ΔH − TΔS = −RT ln Ka, where T is the absolute temperature and R = 8.314 J mol^−1 K^−1. The monosaccharide D-galactose was used as a control; 4 mM D-galactose was added to the 0.147 mM PA-IL in the calorimeter cell. Two titration experiments were performed and the heat responses were processed and evaluated as mentioned above.

[2] = target: T1, lectin PA-IL; experiment: Hemagglutination inhibition assay (HIA) with microscope detection; type: biochemical; conditions: for Potency (MIC of standard/MIC of inhibitor) / β (Potency/Valency): HIA, standard D-galactose; for MIC (minimal inhibitory concentration): inhibition of hemagglutination caused by PA-IL (0.125 mg mL−1), papain-treated red blood cells B+
Protocol: PA-IL was dissolved in the buffer with calcium ions suitable for the activity of the lectin (20 mM Tris/HCl, 150 mM NaCl, 5 mM CaCl2, pH = 7.5) to the concentration 0.25 mg mL^−1. Lectin was mixed with carbohydrate inhibitors serially diluted in the buffer in a 5 µL:5 µL ratio. Therefore, the final (working) concentration of the lectin was 0.125 mg mL^−1. A total of 10 µL of 20% papain-treated, azid-stabilized red blood cells B^+ in the buffer was then added, and the mixture was thoroughly mixed and incubated for 5 min at room temperature. After incubation, the mixture was again mixed, transferred to a microscope slide, and examined. The examination was conducted using the Levenhuk D2L NG Digital Microscope (Levenhuk, Tampa, FL, USA). Images were obtained with a Levenhuk D2L digital camera (Levenhuk, Tampa, FL, USA) using the software ToupView for Windows (Version 3.7, Levenhuk, Tampa, FL, USA). The positive (experiment without inhibitor) and negative control (experiment without lectin) were prepared and processed in the same way using the appropriate volume of dissolving buffer instead of the omitted components. The minimal inhibitory concentration (MIC) of the inhibitor able to inhibit hemagglutination was determined and compared with the standard (D-galactose) and the potency of the inhibitor was calculated (MIC of the standard/MIC of the inhibitor).

[3] = system: Pseudomonas aeruginosa CCM 3955 (ATCC 27853) cells; experiment: Pseudomonas aeruginosa cross-linking assay with microscope detection; type: cell-based; conditions: for cross-linking of whole P. aeruginosa cells (cell aggregates): concentrations up to 5 mM, 10 min, microscope 100x
Protocol: Pseudomonas aeruginosa CCM 3955 (ATCC 27853) cells were inoculated from stock cells stored at −80 °C into a standard LB medium and were grown at 37 °C overnight under orbital shaking. The bacterial culture was kept in the fridge until further use. Prior to the experiment, bacterial cells were centrifuged at 4300× g (Eppendorf centrifuge MiniSpin, Eppendorf, Germany) for 2 min and subsequently washed three times with PBS buffer (137 mM NaCl, 2.7 mM KCl, 10 mM Na2HPO4, 1.8 mM KH2PO4). Bacterial cells were then diluted in PBS to an optical density OD600 = 1.5, which was checked using a spectrophotometer (WPA CO8000 Biovawe Cell Density Metr, Biochrom Ltd., Cambridge, UK). D-galactopyranoside-presenting inhibitors were diluted in ultrapure water to the concentration of 100 mM. Bacterial cells were mixed in a 9:1 ratio with the 10x concentrated selected compounds and gently mixed. The mixture was incubated at room temperature for 10 min and thoroughly mixed again. An amount of 5 µL of the mixture was transferred onto a microscope slide and observed under 100x magnification using an optical microscope (Olympus IX81F-3/IX81S1F-3, Olympus, Tokyo, Japan). As a negative control, bacterial culture mixed with ultrapure water in 9:1 ratio was used. The images were obtained using a phase contrast method and the background of the images was subtracted in GIMP.

Row | Compound | ΔH [1] [kcal/mol] | Ka [1] | −T ΔS [1] [kcal/mol] | ΔG [1] [kcal/mol] | n (stoichiometry) [1] | Potency (MIC of standard/MIC of inhibitor) [2] | β (Potency/Valency) [2] | MIC (minimal inhibitory concentration) [2] [µM] | cross-linking of whole P. aeruginosa cells (cell aggregates) [3] | concentration at which aggregates distinguishable from the negative control were still observed [3] [mM] | Kd [1] [nM]
1 | COC(=O)c1cc(OCc2cn(CCOCCOCCOCCn3cc(CO[C@@H]4O[C@H](CO)[C@H](O)[C@H](O)[C@H]4O)nn3)nn2)c(OCc2cn(CCOCCOCCOCCn3cc(CO[C@@H]4O[C@H](CO)[C@H](O)[C@H](O)[C@H]4O)nn3)nn2)c(OCc2cn(CCOCCOCCOCCn3cc(CO[C@@H]4O[C@H](CO)[C@H](O)[C@H](O)[C@H]4O)nn3)nn2)c1 [Compound 4] | -19.3 ± 0.241 | 128 ± 15.1 10^4 M^−1 | 11 ± 1.43 | -8.32 ± 0.982 | 0.51 ± 0.01 | 128 | 42.7 | 48.83 (≈ 82.3 µg/mL) | Formation of aggregates was observed |  | 
2 | OC[C@H]1O[C@@H](OCc2cn(CCOCCOCCOCCn3cc(COCC(COCc4cn(CCOCCOCCOCCn5cc(CO[C@@H]6O[C@H](CO)[C@H](O)[C@H](O)[C@H]6O)nn5)nn4)(COCc4cn(CCOCCOCCOCCn5cc(CO[C@@H]6O[C@H](CO)[C@H](O)[C@H](O)[C@H]6O)nn5)nn4)COCc4cn(CCOCCOCCOCCn5cc(CO[C@@H]6O[C@H](CO)[C@H](O)[C@H](O)[C@H]6O)nn5)nn4)nn3)nn2)[C@H](O)[C@@H](O)[C@H]1O [Compound 7] | -26.29 ± 0.196 | 281 ± 23.5 10^4 M^−1 | 17.4 ± 1.59 | -8.8 ± 0.739 | 0.32 ± 0.01 | 256 | 64 | 24.41 (≈ 52.2 µg/mL) | highest cross-linking activity; also recorded: Formation of aggregates was observed | 1.25 | 
3 | COC(=O)c1cc(OCc2cn(CCn3cc(CO[C@@H]4O[C@H](CO)[C@H](O)[C@H](O)[C@H]4O)nn3)nn2)c(OCc2cn(CCn3cc(CO[C@@H]4O[C@H](CO)[C@H](O)[C@H](O)[C@H]4O)nn3)nn2)c(OCc2cn(CCn3cc(CO[C@@H]4O[C@H](CO)[C@H](O)[C@H](O)[C@H]4O)nn3)nn2)c1 [Compound 10] | -16.3 ± 0.179 |  | 7.98 ± 0.925 | -8.29 ± 0.87 | 0.53 ± 0.01 | 64 | 21.3 | 97.66 (≈ 126 µg/mL) | Formation of aggregates was observed |  | 820
4 | OC[C@H]1O[C@@H](OCc2cn(CCn3cc(COCC(COCc4cn(CCn5cc(CO[C@@H]6O[C@H](CO)[C@H](O)[C@H](O)[C@H]6O)nn5)nn4)(COCc4cn(CCn5cc(CO[C@@H]6O[C@H](CO)[C@H](O)[C@H](O)[C@H]6O)nn5)nn4)COCc4cn(CCn5cc(CO[C@@H]6O[C@H](CO)[C@H](O)[C@H](O)[C@H]6O)nn5)nn4)nn3)nn2)[C@H](O)[C@@H](O)[C@H]1O [Compound 13] | -32.03 ± 0.347 | 470 ± 54.5 10^4 M^−1 | 22.9 ± 2.904 | -9.11 ± 1.06 | 0.21 ± 0.01 | 128 | 32 | 48.83 (≈ 78.6 µg/mL) | no aggregates were observed; also recorded: no clearly distinguishable aggregates were detected |  | 

From publication PMC6920806, “Synthesis of β-D-galactopyranoside-Presenting Glycoclusters, Investigation of Their Interactions with Pseudomonas aeruginosa Lectin A (PA-IL) and Evaluation of Their Anti-Adhesion Potential” (Biomolecules, 2019)
